Laboratory results: patent US20040037780A1, “Respiratory delivery for gene therapy and lentiviral delivery particle” (priority 2001, published 2004)

Assays:
[1] = test system: nasal airway epithelium; assay: Adenoviral (AdlLacZ) LacZ gene transfer into mouse nasal airway after detergent pre-treatment; type: in vivo, mice; conditions: 4 μl detergent (SDS 0.25%, ZWIT 0.14%, DEOXY 0.17%) 1 h before AdlLacZ 1×10^9 pfu; 3 days; FIG. 7
Protocol: The detergents tested were Sodium n-dodecyl sulfate (SDS), (an anionic detergent) at 0.25%, Zwittergent 3-14: N-Tetradecylsulfobetaine (ZWIT) (a zwitterionic detergent) at 0.14%, Cetyltrimethylammonium bromide (CTAB) (an ionic detergent) at 0.15%, Deoxycholic Acid (DEOXY) (an ionic detergent) at 0.17%, with phosphate buffered saline as a control.
Detergents were made up fresh to nominated concentrations. A single 4 μl dose was used per mouse (all were approximately 20 gm body weight). An Adenoviral vector (AdlLacZ) dose of 1×10^9 pfu in 20 μl. Mice were anaesthetised with Xylamine/Ketamine i.m.; then suspended vertically (hanging on dorsal incisor teeth). The detergent dose was instilled into the nostril opening in one bolus via a micropipettor.
The mouse was set aside for one hour; re-anaesthetised as needed, 1 hour later 20 μl of viral vector was instilled into the same nostril. The mouse was allowed to recover and returned to caging. Three days later the mice were killed with CO2 excess, head removed and the nasal airways were flushed with fixative. These were taken through standard “X-gal” processing to reveal blue stained cells that represent LacZ gene transfer. Cells were processing to wax sections and stained with Safranin-O or haemotoxylin/oesin. Stained cells present along the perimeter of 3 standard cross-sections in the treated nasal airway were counted. […]

[2] = test system: nasal airway epithelium; assay: LV-mediated LacZ gene transfer into mouse nasal airway (X-gal, count of LacZ positive cells); type: in vivo, C57B1/6 mice; conditions: for LacZ positive cells ± SEM: 3 standard cross-sections, n=3
[3] = test system: CFTR-mediated chloride secretion; assay: Nasal TPD/ΔPD measurement of CFTR function after LVCFTR dosing; type: in vivo; conditions: homozygote cftr^tmlUnc mice, 1% LPC 1 h prior to PBS (control) instillation; 7 days later
Protocol: C57B1/6 and cftr^tmlUnc mice (Snouwaert et al., 1992) were used under the approval of both the Women's and Children's Hospital and the University of Adelaide Animal Ethics Committees. C57B1/6 mice (6-7 weeks of age), or cftr^tmlUnc mice (8-20 weeks of age) were anaesthetised intramuscularly with 1 μl/g and 0.7 μl/g body weight respectively of a 3:2 mixture of xylazil (20 mg/ml):ketamine (100 mg/ml) respectively. Body temperature was maintained during anaesthesia with a heat pad, or heat lamp and during the recovery period the mice were placed in a 35° C. air chamber. For dosing, mice were suspended from their dorsal incisors (hindquarters supported) and pre-treatment solutions (4 μl of LPC (Sigma L-4129), or polidocanol (Sigma P-9641), prepared as w/v solutions in PBS) delivered as a bolus into the right nostril using a gel-loading tip (Finnpippette). […] The mice were monitored for respiratory distress and any loss of treatment solution was noted. […]
CFTR gene expression: Mice were anaesthetised, suspended from their dorsal incisors (hindquarters supported) and a subcutaneous needle-agar bridge (as reference electrode) was placed in the abdomen. […] TPD values were measured (blinded) from chart paper recordings, and the ΔPD value was calculated by subtracting the TPD value recorded under basal conditions from the TPD value measured under low-chloride conditions. […]

[4] = test system: nasal airway surface epithelium; assay: Transepithelial potential difference (TPD) after penetrating agent, damage of epithelia; type: in vivo, mice; conditions: for recovery of TDP function: longer time course, FIG. 11
From the text: The method of choice for assessing an appropriate level of damage is by the measurement of transepithelial potential difference (TDP) (Middleton et al., 1994; Knowles et al., 1995; Lee et al., 1999). In general, damage to epithelium with penetrating agents cause at least opening of the tight junctions and this causes the resident negative TPD on the airway surface to go toward zero. If there is exfoliation (that is substantial damage) then the TPD goes to zero quickly and takes several days to return to normal because the epithelia cells have been stripped off and have to regenerate.
Measurement of TPD was performed under zero-chloride perfusion to give a larger baseline TPD value from which to measure change. Under these conditions the values are typically around −20 mV compared to about −5 mV if normal perfusion saline is used. Mice are anaesthetised, TPD cannula is inserted, then the detergent dose is instilled in the same nostril, the effect is then followed in this anterior part of the nose. The methods used for measuring TDP are largely as described in Parsons et al., 1998. For method for use in human see Middleton et al., 1994 and Knowles et al., 1995.
The dosage of detergent used is 4 μl of PBS, PDOC of LPC and is in line with methods used in the above examples. The solutions of detergent use are 0.01, 0.1 and 1.0%. The TDP value was determined 5 minutes after administration of the detergent. The values are presented graphically in FIG. 8. […] A score of 100% represents the pretest TDP value. […] A TDP value of less than about 60% is though to be preferable.
The same doses of LPC were used as for experiment 1 but TDP was measured at 2, 5 and 10 minutes after administration. The data are presented graphically in FIG. 9. […] Thus should 0.01% LPC be used for treatment of the lung then lentivirus should be delivered within 10 minutes.
This uses that same doses of PDOC as in experiment 1 and as in experiment 2 TDP was measured at 2, 5 and 10 minutes after administration. The data from this experiment are presented graphically in FIG. 10.
TDP was measured over a longer time course using PDOC as the penetrating agent. The doses used in this experiment were (per mouse) 10 μl of 1.0% PDOC, 4 μl of 1.0% PDOC and 4 μl of 0.1% PDOC. […] A recovery of TDP function within about 1 day is considered to be transient.

[5] = test system: nasal airway epithelium; assay: Histological injury after dosing with LPC alone; type: in vivo, mouse; conditions: 1% LPC alone
[6] = test system: freshly-excised mouse nasal airway epithelium; conditions: unpublished data
[7] = test system: A549; assay: Effect of detergent on viral gene transfer in vitro, non-polarised cells; type: cell-based; conditions: AdV5CMVLacZ vector added 10, 30 and 60 mins following polidocanol treatment
Protocol: (§1) The effect of detergents (polidocanol and lysophospatidylcholine) on the level of viral gene transfer were firstly evaluated in vitro.
(§2) Initial experiments made use of the AdV5CMVLacZ vector (a generous gift from Dr. R. C. Boucher). […] This dose of polidocanol was assessed on polarised cells (MDCK) and also non-polarised cells (A549). The AdV vector was added at 10, 30 and 60 mins following treatment. […] When the experiments were repeated using the LV vector we found the same effect.

[8] = test system: MDCK; assay: Effect of detergent on viral gene transfer in vitro, polarised cells; type: cell-based; conditions: AdV5CMVLacZ vector added 10, 30 and 60 mins following polidocanol treatment, P<0.05
Protocol: as §1, §2

[9] = 0.1% pre-treatment (4 μl) 1 h before 20 μl LVLacZa (6×10^4 NIH3T3-TU), 7 days
[10] = 1% pre-treatment (4 μl), then PBS instead of vector, 7 days

Question: How did the “numbers of transductants over the control PBS, respiratory cells” value [1] turn out when `CCCCCCCCCCCCOS(=O)(=O)[O-].[Na+]` [SDS, Sodium n-dodecyl sulfate] was run?
Answer: The value was “considerable increase in numbers of transductants”.

Question: With `CCCCCCCCCCCCCC[N+](C)(C)CCCS(=O)(=O)[O-]` [Zwit, N-Tetradecylsulfobetaine] as the molecule, how does the “numbers of transductants over the control PBS, respiratory cells” value [1] read?
Answer: Its value is “considerable increase in numbers of transductants”.

Question: With lysophosphatidylcholine [LPC] as the molecule, how does the “LacZ positive cells ± SEM” value [2, 9] read?
Answer: Its value is 4.3 ± 0.7.

Question: What about the “increase in the level of LV-mediated transduction compared to pre-treatment with 1% polidocanol” value ([2]; 1% LPC pre-treatment, LVLacZa, 7 days) of the same molecule?
Answer: The value was 4 fold.

Question: What about the “LacZ positive cells ± SEM” value [2, 10] of the same molecule?
Answer: The value was 0.0 ± 0.0.

Question: And the ΔPD [3]?
Answer: Its ΔPD is “+8±3.2 mV”.

Question: And the “TPD relative to pretest TPD” value ([4]; 4 μl of 0.01% LPC, after 10 minutes, FIG. 9)?
Answer: The value was “not significantly different to pretest TPD”.

Question: What about the “histological injury observed immediately after dosing” value [5] of the same molecule?
Answer: The value was “limited areas of deciliation or exfoliation found anteriorly close the dosed site”.

Question: What about the “effect on cilial beat” value [6] of the same molecule?
Answer: The value was “dose-dependant reversibility of reduction in cilial beat”.

Question: How did the “number of LacZ positive cells” value ([2]; 1% LPC pre-treatment, LVLacZa vector preparation containing 4 μg/ml polybrene, 7 days) turn out when polybrene was run?
Answer: Its value is 5.0±1.0.

Question: What about the “decrease in the number of LacZ positive cells on inclusion of polybrene in the LVLacZa preparation” value ([2]; 1% LPC pre-treatment, vs polybrene-free LVLacZa, P=0.002) of the same molecule?
Answer: Its value is 4 fold.

Question: Which results are given for polyoxyethylene 9-lauryl ether [PDOC]?
Answer: LacZ positive cells ± SEM [2, 9]: 2.7 ± 0.3; LacZ positive cells ± SEM ([2]; 1% pre-treatment (4 μl) 1 h before 20 μl LVLacZa (6×10^4 NIH3T3-TU), polybrene-free, 7 days): 5.3 ± 1.3; LacZ positive cells ± SEM [2, 10]: 0.0 ± 0.0; effect on TDP value ([4]; 4 μl of 0.01, 0.1 and 1.0% solutions, 5 minutes after administration, FIG. 8): greater effect on TDP value than LPC; recovery of TDP function ([4]; 4 μl of 0.1% PDOC): rapidly recovers; recovery of TDP function ([4]; 10 μl of 1.0% PDOC and 4 μl of 1.0% PDOC (first two doses)): extended; level of gene transfer between vector instillation times [7]: no apparent difference; gene transfer when vector added one hour after treatment compared to shorter time points [8]: significantly improved
